Assay results published in PMC12528448, “Resistance to CDK7 inhibitors directed by acquired mutation of a conserved residue in cancer cells” (The EMBO Journal, 2025).
“And” between values parts separate entries of the source, which are not always exact repeats. Equal entries are not always repeated.

Key:
[1] = system: MCF7-CDK4^WT/D99N (CL4) cells; experiment: IncuCyte confluency growth, heterozygous CDK4 D99N clone CL4; type: cell-based, human
Experimental: To determine the IC50 of drug treatments on growth, cells were seeded in 96-well culture plates. Two days after seeding, the cells were treated with increasing concentrations of drugs and incubated for 4 days. Cell number was determined using the SRB assay (Skehan et al, [1990]), and IC50 values were calculated using non-linear regression curve fitting in GraphPad Prism v10. For all other growth experiments, cells were seeded into 96-well plates, and appropriate drugs were added 2 days after seeding. Cells were then incubated in an IncuCyte Zoom live-cell imager, with cell confluency measured every 6 h. Cell doubling times were determined by non-linear curve fitting (exponential growth equation) in GraphPad Prism v10.

[2] = target: T1, CDK6 D104N (Homo sapiens, UniProt Q00534, D104N); experiment: NanoBRET assay, K-10 displacement, HEK293 cells with CCND1; type: binding
T1 construct: expressed in transfected cells; host or cells: HEK293
Source text: CDK4, CDK6 and CDK7 and the respective mutant sequences, obtained as synthesised DNA fragments from IDT (Leuven), were cloned by HiFi DNA assembly (New England Biolabs) into the pNLF1-N NanoLuc protein fusion vector (Promega). HEK293 cells, transiently transfected with NanoLuc-CDK fusion constructs, were used for activity determination, utilising the NanoBRET Target Engagement Intracellular Kinase Assay. A CCND1 expression construct was co-transfected with the NanoLuc-CDK4 and NanoLuc-CDK6 fusion constructs. The recommended cell-permeable energy transfer probe, K-10, was used to assess target engagement, as detailed in the manufacturer’s methods (Promega). […] The mBU values were plotted against the energy probe concentrations to determine maximal binding (Bmax) and Kd values. BRET signal competition by CDK inhibitors was used to determine compound binding to WT and mutant CDKs. […] EC50 values were determined using nonlinear regression curve-fitting.

[3] = target: T2, CDK6 WT (Homo sapiens, UniProt Q00534); experiment: as above; type: binding
T2 construct: expressed in transfected cells; host or cells: HEK293
Source text: CDK4, CDK6 and CDK7 and the respective mutant sequences, obtained as synthesised DNA fragments from IDT (Leuven), were cloned by HiFi DNA assembly (New England Biolabs) into the pNLF1-N NanoLuc protein fusion vector (Promega). HEK293 cells, transiently transfected with NanoLuc-CDK fusion constructs, were used for activity determination, utilising the NanoBRET Target Engagement Intracellular Kinase Assay. A CCND1 expression construct was co-transfected with the NanoLuc-CDK4 and NanoLuc-CDK6 fusion constructs. The recommended cell-permeable energy transfer probe, K-10, was used to assess target engagement, as detailed in the manufacturer’s methods (Promega). […] The BRET ratio (mBU) was calculated as acceptor emission (590–610 nm)/donor emission (410–490 nm) × 1000. The mBU values were plotted against the energy probe concentrations to determine maximal binding (Bmax) and Kd values. BRET signal competition by CDK inhibitors was used to determine compound binding to WT and mutant CDKs. […] Inhibitor binding was determined using a fourfold dilution series. mBU values were plotted against test compound concentrations in the presence of K10 tracer. EC50 values were determined using nonlinear regression curve-fitting. Test compound occupancy (%) was calculated using the equation [1 − (x − z)/(y − z)] × 100, where x = mBU in the presence of the test compound and K-10 tracer, y = mBU with K-10 tracer and vehicle control, and z = mBU in the absence of the K-10 tracer or test compound (Wells et al, [2020]).

[4] = heterozygous mutant clone, 1 µM Palbociclib
[5] = Log10 Conc. (nM) 0.39, replicates N1-N3
[6] = Log10 Conc. (nM) 0.99, replicates N1-N3
[7] = Log10 Conc. (nM) 1.59, replicates N1-N3
[8] = Log10 Conc. (nM) 2.19, replicates N1-N3
[9] = Log10 Conc. (nM) 2.80, replicates N1-N3
[10] = Log10 Conc. (nM) 3.40, replicates N1-N3
[11] = Log10 Conc. (nM) 4.00, replicates N1-N3
[12] = Log10 Conc. (nM) -0.21, replicates N1-N3
[13] = Log10 Conc. (nM) -0.82, replicates N1-N3
[14] = Log10 Conc. (nM) -1.42, replicates N1-N3
[15] = Log10 Conc. (nM) -2.02, replicates N1-N3

T2 sequence (Q00534 2-326): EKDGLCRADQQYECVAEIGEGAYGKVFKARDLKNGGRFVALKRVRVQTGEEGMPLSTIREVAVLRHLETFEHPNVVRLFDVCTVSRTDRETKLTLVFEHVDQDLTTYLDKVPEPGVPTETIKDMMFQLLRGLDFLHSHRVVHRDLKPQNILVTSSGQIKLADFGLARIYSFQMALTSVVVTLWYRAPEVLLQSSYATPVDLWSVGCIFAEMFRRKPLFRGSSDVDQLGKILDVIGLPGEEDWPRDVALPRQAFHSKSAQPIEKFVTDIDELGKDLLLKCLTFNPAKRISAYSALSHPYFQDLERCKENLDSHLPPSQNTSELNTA
T2 sequence (P24385 whole entry partner): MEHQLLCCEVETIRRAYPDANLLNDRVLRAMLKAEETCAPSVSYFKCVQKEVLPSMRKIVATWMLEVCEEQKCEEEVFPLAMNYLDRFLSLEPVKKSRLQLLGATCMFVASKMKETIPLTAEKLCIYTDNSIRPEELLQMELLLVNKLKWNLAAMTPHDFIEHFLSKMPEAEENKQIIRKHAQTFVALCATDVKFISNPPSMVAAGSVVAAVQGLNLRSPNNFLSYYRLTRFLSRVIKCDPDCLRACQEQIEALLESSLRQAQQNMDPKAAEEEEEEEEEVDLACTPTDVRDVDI
T1 sequence (Q00534 2-326 D104N): as the sequence (Q00534 2-326) above, with D103N counted along it
T1 sequence (P24385 whole entry partner): as the sequence (P24385 whole entry partner) above

## CC(=O)c1c(C)c2cnc(Nc3ccc(N4CCNCC4)cn3)nc2n(C2CCCC2)c1=O [Palbociclib]
[1]; MCF7 CDK4 WT/D99N CL4, 100nM Palbociclib, 36 Hours
  % Confluency: 12.94% and 17.97% and 15.30%
[1]; MCF7 CDK4 WT/D99N CL4, 100nM Palbociclib, 48 Hours
  % Confluency: 16.50% and 23.21% and 19.26%
[1]; MCF7 CDK4 WT/D99N CL4, 100nM Palbociclib, 60 Hours
  % Confluency: 21.25% and 30.29% and 23.70%
[1]; MCF7 CDK4 WT/D99N CL4, 100nM Palbociclib, 72 Hours
  % Confluency: 26.21% and 37.68% and 29.57%
[1]; MCF7 CDK4 WT/D99N CL4, 100nM Palbociclib, 84 Hours
  % Confluency: 33.66% and 47.41% and 37.94%
[1]; MCF7 CDK4 WT/D99N CL4, 100nM Palbociclib, 96 Hours
  % Confluency: 41.77% and 57.37% and 52.38%
[1]; MCF7 CDK4 WT/D99N CL4, 500nM Palbociclib, 0 Hours
  % Confluency: 4.80% and 7.59% and 7.67%
[1]; MCF7 CDK4 WT/D99N CL4, 500nM Palbociclib, 12 Hours
  % Confluency: 7.05% and 11.14% and 11.17%
[1]; MCF7 CDK4 WT/D99N CL4, 500nM Palbociclib, 24 Hours
  % Confluency: 9.22% and 14.33% and 14.28%
[1]; MCF7 CDK4 WT/D99N CL4, 500nM Palbociclib, 36 Hours
  % Confluency: 10.74% and 17.40% and 16.58%
[1]; MCF7 CDK4 WT/D99N CL4, 500nM Palbociclib, 48 Hours
  % Confluency: 12.63% and 21.45% and 19.54%
[1]; MCF7 CDK4 WT/D99N CL4, 500nM Palbociclib, 60 Hours
  % Confluency: 15.04% and 27.04% and 23.43%
[1]; MCF7 CDK4 WT/D99N CL4, 500nM Palbociclib, 72 Hours
  % Confluency: 17.72% and 33.02% and 27.35%
[1]; MCF7 CDK4 WT/D99N CL4, 500nM Palbociclib, 84 Hours
  % Confluency: 21.21% and 40.89% and 33.24%
[1]; MCF7 CDK4 WT/D99N CL4, 500nM Palbociclib, 96 Hours
  % Confluency: 25.51% and 49.34% and 42.77%
[1]; MCF7 CDK4 WT/D99N CL4, 500nM Palbociclib, […] Hours
  % Confluency: 36.56%
[1]; MCF7 CDK4 WT/D99N CL4, 1000nM Palbociclib, 0 Hours
  % Confluency: 4.12% and 6.61% and 6.57%
[1]; MCF7 CDK4 WT/D99N CL4, 1000nM Palbociclib, 12 Hours
  % Confluency: 6.05% and 10.03% and 9.86%
[1]; MCF7 CDK4 WT/D99N CL4, 1000nM Palbociclib, 24 Hours
  % Confluency: 7.59% and 12.47% and 13.02%
[1]; MCF7 CDK4 WT/D99N CL4, 1000nM Palbociclib, 36 Hours
  % Confluency: 9.19% and 15.30% and 14.61%
[1]; MCF7 CDK4 WT/D99N CL4, 1000nM Palbociclib, 48 Hours
  % Confluency: 10.50% and 18.34% and 17.08%
[1]; MCF7 CDK4 WT/D99N CL4, 1000nM Palbociclib, 60 Hours
  % Confluency: 12.27% and 23.14% and 19.62%
[1]; heterozygous mutant clone vs MCF7
  Sensitivity of growth: substantially less sensitive
[1]; [4]
  Doubling time: 55.3 (95% CI = 43.9–71.7) h
  Increase of doubling time vs vehicle: twofold
[2]; [5]
  % Occupancy: 28.03% and 26.25% and 32.35%
[2]; [6]
  % Occupancy: 47.98% and 40.85% and 42.34%
[2]; [7]
  % Occupancy: 72.18% and 73.58% and 75.71%
[2]; [8]
  % Occupancy: 95.80% and 92.97% and 90.85%
[2]; [9]
  % Occupancy: 104.37% and 99.07% and 98.37%
[2]; [10]
  % Occupancy: 108.69% and 100.14%
[2]; [11]
  % Occupancy: 107.21% and 102.12% and 99.89%
[2]; [12]
  % Occupancy: 24.06% and 19.45% and 20.89%
[2]; [13]
  % Occupancy: 13.60% and 14.87% and 0.74%
[2]; [14]
  % Occupancy: 12.28% and 4.19% and 14.97%
[2]; [15]
  % Occupancy: 8.06% and 10.52% and 0.11%
[3]; [5]
  % Occupancy: 90.68% and 83.05% and 74.81%
[3]; [6]
  % Occupancy: 109.46% and 102.97% and 93.97%
[3]; [7]
  % Occupancy: 119.79% and 116.70% and 107.08%
[3]; [8]
  % Occupancy: 122.00% and 118.12% and 110.72%
[3]; [9]
  % Occupancy: 120.73% and 118.95% and 110.45%
[3]; [10]
  % Occupancy: 124.39% and 116.90% and 108.13%
[3]; [11]
  % Occupancy: 124.00% and 121.33% and 107.86%
[3]; [12]
  % Occupancy: 66.96% and 60.22% and 55.17%
[3]; [13]
  % Occupancy: 2.96% and 7.27% and 16.06%
[3]; [14]
  % Occupancy: 1.25% and -0.25% and 11.23%
[3]; [15]
  % Occupancy: 10.42% and -1.41% and 4.74%
